Assay results published in US20120178786A9, “Use of tetramic acid derivatives for controlling pests by drenching, drip application, or dip application” (priority 2006, published 2012).

Test system: Coccus viridis
Test: Example 11: drench of gardenia plants, Henderson-Tilton efficacy against nymphs
Format: in vivo
Details: 48 mg active substance/1 potting compost, 20 G
Experimental: Gardenia plants cv. […] The greenhouse temperature is 27° C. The test is evaluated 7, 15, 21 and 35 days after the treatment by determining the activity against nymphs on the leaves with the aid of the Henderson-Tilton method.

CN/C(=N/CC1CCOC1)N[N+](=O)[O-] (stereo not shown) [Dinotefuran, dinotefuran]
Henderson-Tilton efficacy (%) against Coccus viridis (7 d after treatment): 0%
Henderson-Tilton efficacy (%) against Coccus viridis (15 d after treatment): 57%
Henderson-Tilton efficacy (%) against Coccus viridis (21 d after treatment): 85%
Henderson-Tilton efficacy (%) against Coccus viridis (35 d after treatment): 91%
